Assay results as given in paper PMC12035797, “Peptidomimetics Activating the Proteasome: A New Perspective for Parkinson’s Treatment” (Journal of Medicinal Chemistry, 2025).
Where a SMILES comes first, the peptide text is derived from it. [ ]: non-standard residue; d: D form. N(4-MeOBn)Gly = COc1ccc(CNCC(=O)O)cc1; NMeY = CN[C@@H](Cc1ccc(O)cc1)C(=O)O; Gly(N-CH2CH2OH) = O=C(O)CNCCO; NMeK = CN[C@@H](CCCCN)C(=O)O; Nlys = NCCCCNCC(=O)O

Key:
Assay type in all cases: biochemical
[1] = tested on: T1, human 20S proteasome, ChT-L peptidase; test: Chymotrypsin-like (ChT-L) activity of h20S probed with Suc-LLVY-AMC
T1 construct: human proteasome isolated from erythrocytes; from tissue; host or cells: human erythrocytes
Method: (§1) To assess the influence of substitutions increasing proteolytic stability on the modulators’ capacity to stimulate chymotrypsin-like, trypsin-like, and caspase-like activity of h20S, we used classic fluorogenic substrates: Suc-LLVY-AMC, Boc-LRR-AMC, and Z-LLE-AMC, respectively.
(§2) The effect of all synthesized peptidomimetics on the catalytic activity of the proteasome was tested using a human proteasome isolated from erythrocytes. Suc-LLVY-AMC, Boc-LRR-AMC, and Z-LLE-AMC fluorogenic substrates (Bachem, Bubendorf, Switzerland) were used for assessment of the chymotrypsin-, trypsin-, and caspase-like activities, respectively. A homemade FRET-type substrate Dabcyl-EDANS (Lys(Dabcyl)-[…]EDANS)-Gly)[26] was used as an additional probe. Stock solutions of the substrates and tested peptidomimetics were prepared in dimethyl sulfoxide (DMSO), ensuring that the final concentration of DMSO in all samples remained consistent at 2%. The small fluorogenic substrates were used at a final concentration of 100 μM, while Dabcyl-EDANS was prepared at a final concentration of 15 μM. […] Activity tests were conducted in 96-well plates using 50 mM Tris/HCl, pH 8.0, as an assay buffer. The final concentration of h20S proteasome was adjusted to 0.002 mg/mL (2.8 nM). The fluorescence of released aminomethylcoumarin (AMC) was monitored at 460 nm (λex was 380 nm), while the hydrolysis of Dabcyl-EDANS was detected by measuring emission at 493 nm (λex was set at 335 nm). Fluorescence measurements were taken continuously every 2 min over a 60 min period at 37 °C using a Tecan Infinite M200Pro spectrofluorometer (Tecan Trading AG, Männedorf, Switzerland). All activity assays were performed in at least three independent replicates. The relative activity was calculated in relation to the catalytic activity of the vehicle (DMSO)-treated latent proteasome, which was regarded as 100%. Statistical analysis was performed using the one-way ANOVA followed by Tukey’s post-hoc test. P-value <0.05 was considered statistically significant.

[2] = tested on: T2, human 20S proteasome; test: h20S proteasome activity probed with FRET-type Dabcyl-EDANS substrate; settings: for h20S stimulating capacity, Dabcyl-EDANS: 1.0-50 μM modulator
T2 construct: human proteasome isolated from erythrocytes; from tissue; host or cells: human erythrocytes
Description: (§3) To assess the influence of substitutions increasing proteolytic stability on the modulators’ capacity to stimulate chymotrypsin-like, trypsin-like, and caspase-like activity of h20S, we used classic fluorogenic substrates: Suc-LLVY-AMC, Boc-LRR-AMC, and Z-LLE-AMC, respectively. To confirm the observed stimulating capacity, we also conducted assays using a FRET-type reporter peptide with a sequence consisting of 11 residues (Lys(Dabcyl)-[…]EDANS)-Gly).[27] As we checked, the activated 20S hydrolyzed this substrate after more than one residue (Lys, Gly, and Glu), which makes it a probe better reflecting the concerted action of the proteasome’s three peptidases. […] The discrepancy in the level of activation was mainly due to the greater sensitivity of the FRET substrate, as it is not digested, unlike the AMC-based probes, by the latent proteasome, which results in greater differences in fluorescence relative to the controls. […] The ability to affect individual peptidases of the proteasome in different ways is most likely related to the allosteric mechanism of action of the modulators. Binding at a site distant from the catalytic compartment may result in greater diversity in the pathways by which the signal reaches active sites and differential effects of that signal on each peptidase.
(§4) The effect of all synthesized peptidomimetics on the catalytic activity of the proteasome was tested using a human proteasome isolated from erythrocytes. Suc-LLVY-AMC, Boc-LRR-AMC, and Z-LLE-AMC fluorogenic substrates (Bachem, Bubendorf, Switzerland) were used for assessment of the chymotrypsin-, trypsin-, and caspase-like activities, respectively. A homemade FRET-type substrate Dabcyl-EDANS (Lys(Dabcyl)-[…]EDANS)-Gly)[26] was used as an additional probe. Stock solutions of the substrates and tested peptidomimetics were prepared in dimethyl sulfoxide (DMSO), ensuring that the final concentration of DMSO in all samples remained consistent at 2%. The small fluorogenic substrates were used at a final concentration of 100 μM, while Dabcyl-EDANS was prepared at a final concentration of 15 μM. Modulators were tested in concentrations ranging from 1.0 to 50 μM, with compounds containing TAT or 6R sequences tested at lower concentrations ranging from 0.5 to 10 μM. Activity tests were conducted in 96-well plates using 50 mM Tris/HCl, pH 8.0, as an assay buffer. The final concentration of h20S proteasome was adjusted to 0.002 mg/mL (2.8 nM). The fluorescence of released aminomethylcoumarin (AMC) was monitored at 460 nm (λex was 380 nm), while the hydrolysis of Dabcyl-EDANS was detected by measuring emission at 493 nm (λex was set at 335 nm). Fluorescence measurements were taken continuously every 2 min over a 60 min period at 37 °C using a Tecan Infinite M200Pro spectrofluorometer (Tecan Trading AG, Männedorf, Switzerland). All activity assays were performed in at least three independent replicates. The relative activity was calculated in relation to the catalytic activity of the vehicle (DMSO)-treated latent proteasome, which was regarded as 100%. Statistical analysis was performed using the one-way ANOVA followed by Tukey’s post-hoc test. P-value <0.05 was considered statistically significant.

[3] = tested on: T3, human 20S proteasome, C-L peptidase; test: Caspase-like (C-L) activity of h20S probed with Z-LLE-AMC; settings: 100 μM Z-LLE-AMC
T3 construct: human proteasome isolated from erythrocytes; from tissue; host or cells: human erythrocytes
Description: as §3, §4

[4] = tested on: T4, human 20S proteasome, T-L peptidase; test: Trypsin-like (T-L) activity of h20S probed with Boc-LRR-AMC; settings: 100 μM Boc-LRR-AMC
T4 construct: human proteasome isolated from erythrocytes; from tissue; host or cells: human erythrocytes
Method: as §1, §2

[5] = 100 μM Suc-LLVY-AMC, whole concentration range

Molecule: C[C@@H](O)[C@H](NC(=O)[C@H](Cc1ccccc1)NC(=O)[C@H](Cc1ccc(O)cc1)NC(=O)[C@@H](N)CCCCN)C(=O)NCC(=O)N[C@@H](CO)C(=O)N[C@@H](CCCCN)C(=O)N[C@@H](CC(=O)O)C(=O)N[C@@H](Cc1c[nH]c2ccccc12)C(=O)N[C@@H](CCCNC(=N)N)C(=O)N(CCO)CC(=O)N[C@@H](Cc1ccc(O)cc1)C(=O)N[C@@H](Cc1ccc(O)cc1)C(=O)N[C@@H](CO)C(=O)O [1b] (H-KYFTGSKDWR[Gly(N-CH2CH2OH)]YYS-OH)
- ChT-L stimulating capacity, Suc-LLVY-AMC [1, 5]: lower capacity of activating h20S
- h20S stimulating capacity, Dabcyl-EDANS ([2]; 15 μM Dabcyl-EDANS): less strongly than 1

Molecule: CN[C@@H](CCCCN)C(=O)N(C)[C@@H](Cc1ccc(O)cc1)C(=O)N[C@@H](Cc1ccccc1)C(=O)N[C@H](C(=O)NCC(=O)N[C@@H](CO)C(=O)N[C@@H](CCCCN)C(=O)N[C@@H](CC(=O)O)C(=O)N[C@@H](Cc1c[nH]c2ccccc12)C(=O)N[C@@H](CCCNC(=N)N)C(=O)N[C@@H](CO)C(=O)N[C@@H](Cc1ccc(O)cc1)C(=O)N[C@@H](Cc1ccc(O)cc1)C(=O)N[C@@H](CO)C(=O)O)[C@@H](C)O [1e] (H-[NMeK][NMeY]FTGSKDWRSYYS-OH)
- stimulation of h20S activity, Suc-LLVY-AMC probe ([1]; 100 μM Suc-LLVY-AMC, level reached vs latent proteasome): 8 fold
- h20S stimulating capacity, Dabcyl-EDANS ([2]; 15 μM Dabcyl-EDANS): did not lose their ability to effectively stimulate h20S
- stimulation of h20S activity, Dabcyl-EDANS probe ([2]; 15 μM Dabcyl-EDANS, level reached vs latent proteasome): 12 fold
- h20S stimulating potency, Dabcyl-EDANS ([2]; at the lowest concentrations): even more potent than 1

Molecule: C[C@@H](O)[C@H](NC(=O)[C@H](Cc1ccccc1)NC(=O)[C@H](Cc1ccc(O)cc1)NC(=O)[C@@H](N)CCCCN)C(=O)NCC(=O)N[C@@H](CO)C(=O)N(CCCCN)CC(=O)N[C@@H](CC(=O)O)C(=O)N[C@@H](Cc1ccc(O)cc1)C(=O)N[C@@H](CCCNC(=N)N)C(=O)N[C@@H](CCCNC(=N)N)C(=O)N[C@@H](Cc1ccc(O)cc1)C(=O)N[C@@H](Cc1ccc(O)cc1)C(=O)N[C@@H](CO)C(=O)O [2b] (H-KYFTGS[Nlys]DYRRYYS-OH)
- C-L stimulating capacity, Z-LLE-AMC [3]: comparable stimulatory capacity
- ChT-L stimulating capacity, Suc-LLVY-AMC ([1]; at higher concentrations): efficiency comparable to 2 and 2a
- T-L stimulating capacity, Boc-LRR-AMC [4]: comparable stimulatory capacity
- h20S stimulating capacity, Dabcyl-EDANS ([2]; 15 μM Dabcyl-EDANS): comparable stimulatory capacity

Molecule: C[C@@H](O)[C@H](NC(=O)[C@H](Cc1ccccc1)NC(=O)[C@H](Cc1ccc(O)cc1)NC(=O)CNCCCCN)C(=O)NCC(=O)N[C@@H](CO)C(=O)N(CCCCN)CC(=O)N[C@@H](CC(=O)O)C(=O)N[C@@H](Cc1ccc(O)cc1)C(=O)N[C@@H](CCCNC(=N)N)C(=O)N[C@@H](CCCNC(=N)N)C(=O)N[C@@H](Cc1ccc(O)cc1)C(=O)N[C@@H](Cc1ccc(O)cc1)C(=O)N[C@@H](CO)C(=O)O [2c] (H-[Nlys]YFTGS[Nlys]DYRRYYS-OH)
- C-L stimulating capacity, Z-LLE-AMC [3]: comparable stimulatory capacity
- ChT-L stimulating capacity, Suc-LLVY-AMC ([1]; at 1 μM concentration): same moderate efficiency
- ChT-L stimulating capacity, Suc-LLVY-AMC ([1]; at higher concentrations): efficiency comparable to 2 and 2a
- T-L stimulating capacity, Boc-LRR-AMC [4]: comparable stimulatory capacity
- h20S stimulating capacity, Dabcyl-EDANS ([2]; 15 μM Dabcyl-EDANS): comparable stimulatory capacity

Molecule: COc1ccc(CN(CC(=O)N[C@@H](Cc2ccccc2)C(=O)N[C@H](C(=O)NCC(=O)N[C@@H](CO)C(=O)N[C@@H](CCCCN)C(=O)N[C@@H](CC(=O)O)C(=O)N[C@@H](Cc2ccc(O)cc2)C(=O)N[C@@H](CCCNC(=N)N)C(=O)N[C@@H](CCCNC(=N)N)C(=O)N[C@@H](Cc2ccc(O)cc2)C(=O)N[C@@H](Cc2ccc(O)cc2)C(=O)N[C@@H](CO)C(=O)O)[C@@H](C)O)C(=O)[C@@H](N)CCCCN)cc1 [2d] (H-K[N(4-MeOBn)Gly]FTGSKDYRRYYS-OH)
- C-L stimulating capacity, Z-LLE-AMC [3]: comparable stimulatory capacity
- ChT-L stimulating capacity, Suc-LLVY-AMC ([1]; at 1 μM concentration): same moderate efficiency
- ChT-L stimulating capacity, Suc-LLVY-AMC ([1]; at higher concentrations): as inefficient as 2e
- T-L stimulating capacity, Boc-LRR-AMC [4]: comparable stimulatory capacity
- h20S stimulating capacity, Dabcyl-EDANS ([2]; 15 μM Dabcyl-EDANS): comparable stimulatory capacity

Molecule: COc1ccc(CN(CC(=O)N[C@@H](CCCNC(=N)N)C(=O)N[C@@H](CCCNC(=N)N)C(=O)N[C@@H](Cc2ccc(O)cc2)C(=O)N[C@@H](Cc2ccc(O)cc2)C(=O)N[C@@H](CO)C(=O)O)C(=O)[C@H](CC(=O)O)NC(=O)[C@H](CCCCN)NC(=O)[C@H](CO)NC(=O)CNC(=O)[C@@H](NC(=O)[C@H](Cc2ccccc2)NC(=O)[C@H](Cc2ccc(O)cc2)NC(=O)[C@@H](N)CCCCN)[C@@H](C)O)cc1 [2e] (H-KYFTGSKD[N(4-MeOBn)Gly]RRYYS-OH)
- C-L stimulating capacity, Z-LLE-AMC [3]: weakest activators
- ChT-L stimulating capacity, Suc-LLVY-AMC [1, 5]: least effective stimulants
- T-L stimulating capacity, Boc-LRR-AMC [4]: weakest activators
- h20S stimulating capacity, Dabcyl-EDANS ([2]; 15 μM Dabcyl-EDANS): least effective stimulants

Molecule: H-KYFTGSKDYRRYYS-OH [compound 2]
- ChT-L stimulating capacity, Suc-LLVY-AMC [1, 5]: most effective h20S stimulators
- h20S stimulating capacity, Dabcyl-EDANS ([2]; 15 μM Dabcyl-EDANS): most effective h20S stimulators

Molecule: RKKRRQRRR [tat, fragment of the HIV-1 Tat 48–58 peptide used as cell-penetrating peptide, tested alone as control, reference compound]
- ChT-L stimulating capacity, Suc-LLVY-AMC [1, 5]: proteasome inhibition
